Source: PubChem BioAssay (NCI)
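Exposure lasted 48 hours, with cells grown in 96-well plates and compounds tested at five concentrations. GI50 = concentration required for 50% inhibition of growth. TGI: concentration producing complete growth inhibition.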

Assays:
Experiment in all cases: growth of human tumour cells (NCI), 48 h
BT-549 breast = tested on: BT-549 breast
HCT-116 colon = tested on: HCT-116 colon
RPMI-8226 leukemia = tested on: RPMI-8226 leukemia
UACC-257 melanoma = tested on: UACC-257 melanoma
EKVX NSCLC = tested on: EKVX NSCLC
SK-MEL-2 melanoma = tested on: SK-MEL-2 melanoma
HT29 colon = tested on: HT29 colon
TK-10 renal = tested on: TK-10 renal
A498 renal = tested on: A498 renal
MOLT-4 leukemia = tested on: MOLT-4 leukemia
MDA-MB-435 = tested on: MDA-MB-435
CCRF-CEM leukemia = tested on: CCRF-CEM leukemia
T-47D breast = tested on: T-47D breast
SF-539 CNS = tested on: SF-539 CNS
NCI-H23 lung = tested on: NCI-H23 lung
KM12 colon = tested on: KM12 colon
PC-3 prostate = tested on: PC-3 prostate
SF-295 CNS = tested on: SF-295 CNS
HOP-62 NSCLC = tested on: HOP-62 NSCLC
HCT-15 colon = tested on: HCT-15 colon
COLO 205 colon = tested on: COLO 205 colon
RXF 393 renal = tested on: RXF 393 renal
SK-OV-3 ovarian = tested on: SK-OV-3 ovarian
CAKI-1 renal = tested on: CAKI-1 renal
OVCAR-5 ovarian = tested on: OVCAR-5 ovarian
LOX IMVI melanoma = tested on: LOX IMVI melanoma
UO-31 renal = tested on: UO-31 renal
A549 NSCLC = tested on: A549 NSCLC
MALME-3M melanoma = tested on: MALME-3M melanoma
ACHN renal = tested on: ACHN renal
OVCAR-4 ovarian = tested on: OVCAR-4 ovarian
SN12C renal = tested on: SN12C renal
NCI-H522 lung = tested on: NCI-H522 lung
MDA-MB-468 breast = tested on: MDA-MB-468 breast
SR leukemia = tested on: SR leukemia
IGROV1 ovarian = tested on: IGROV1 ovarian
NCI-H460 lung = tested on: NCI-H460 lung
HL-60(TB) leukemia = tested on: HL-60(TB) leukemia
M14 melanoma = tested on: M14 melanoma
DU-145 prostate = tested on: DU-145 prostate
SNB-19 CNS = tested on: SNB-19 CNS
MCF7 breast = tested on: MCF7 breast
OVCAR-8 ovarian = tested on: OVCAR-8 ovarian
NCI-H226 lung = tested on: NCI-H226 lung
HS 578T breast = tested on: HS 578T breast
UACC-62 melanoma = tested on: UACC-62 melanoma
MDA-MB-231 breast = tested on: MDA-MB-231 breast
K-562 leukemia = tested on: K-562 leukemia
SK-MEL-28 melanoma = tested on: SK-MEL-28 melanoma
786-0 renal = tested on: 786-0 renal
SF-268 CNS = tested on: SF-268 CNS
U251 CNS = tested on: U251 CNS
OVCAR-3 ovarian = tested on: OVCAR-3 ovarian
SK-MEL-5 melanoma = tested on: SK-MEL-5 melanoma
HOP-92 NSCLC = tested on: HOP-92 NSCLC
NCI/ADR-RES ovarian = tested on: NCI/ADR-RES ovarian
HCC-2998 colon = tested on: HCC-2998 colon
SW-620 colon = tested on: SW-620 colon
SNB-75 CNS = tested on: SNB-75 CNS

## CCN1CCN(c2ccc(NC(=O)Nc3ccc(-c4cc(C(=O)NC(C)C)c5ncccc5n4)cc3)cc2C(F)(F)F)CC1
BT-549 breast
  GI50: 4.83 µM
  TGI: 9.57 µM
HCT-116 colon
  GI50: 0.638 µM
  TGI: 1.3 µM
RPMI-8226 leukemia
  GI50: 1.04 µM
  TGI: 34.5 µM
UACC-257 melanoma
  GI50: 3.45 µM
  TGI: 8.11 µM
EKVX NSCLC
  GI50: 1.61 µM
  TGI: 5.82 µM
SK-MEL-2 melanoma
  GI50: 4.82 µM
  TGI: 9.89 µM
HT29 colon
  GI50: 0.665 µM
  TGI: 1.32 µM
TK-10 renal
  GI50: 1.35 µM
  TGI: 4.87 µM
A498 renal
  GI50: 5.11 µM
  TGI: 9.7 µM
MOLT-4 leukemia
  GI50: 1.11 µM
  TGI: 30.6 µM
MDA-MB-435
  GI50: 0.65 µM
  TGI: 1.31 µM
CCRF-CEM leukemia
  GI50: 1.01 µM
  TGI: 3.1 µM
T-47D breast
  GI50: 1.93 µM
  TGI: 8.74 µM
SF-539 CNS
  GI50: 0.534 µM
  TGI: 1.02 µM
NCI-H23 lung
  GI50: 2.05 µM
  TGI: 7.27 µM
KM12 colon
  GI50: 1.01 µM
  TGI: 2.91 µM
PC-3 prostate
  GI50: 0.76 µM
  TGI: 2.1 µM
SF-295 CNS
  GI50: 0.581 µM
  TGI: 1.14 µM
HOP-62 NSCLC
  GI50: 3.83 µM
  TGI: 8.89 µM
HCT-15 colon
  GI50: 0.667 µM
  TGI: 1.35 µM
COLO 205 colon
  GI50: 0.931 µM
  TGI: 2.71 µM
RXF 393 renal
  GI50: 0.654 µM
  TGI: 1.73 µM
SK-OV-3 ovarian
  GI50: 5.33 µM
  TGI: 10.8 µM
CAKI-1 renal
  GI50: 0.804 µM
  TGI: 2.08 µM
OVCAR-5 ovarian
  GI50: 1.6 µM
  TGI: 6.09 µM
LOX IMVI melanoma
  GI50: 0.557 µM
  TGI: 1.05 µM
UO-31 renal
  GI50: 2.18 µM
  TGI: 6.81 µM
A549 NSCLC
  GI50: 1.14 µM
  TGI: 5.77 µM
MALME-3M melanoma
  GI50: 0.575 µM
  TGI: 1.05 µM
ACHN renal
  GI50: 1.02 µM
  TGI: 3.47 µM
OVCAR-4 ovarian
  GI50: 0.88 µM
  TGI: 2.45 µM
SN12C renal
  GI50: 0.668 µM
  TGI: 1.38 µM
NCI-H522 lung
  GI50: 3.52 µM
  TGI: 8.43 µM
MDA-MB-468 breast
  GI50: 0.766 µM
  TGI: 1.85 µM
SR leukemia
  GI50: 1.05 µM
  TGI: 12.1 µM
IGROV1 ovarian
  GI50: 1.42 µM
  TGI: 5.11 µM
NCI-H460 lung
  GI50: 0.617 µM
  TGI: 1.18 µM
HL-60(TB) leukemia
  GI50: 1.07 µM
  TGI: 5.89 µM
M14 melanoma
  GI50: 0.723 µM
  TGI: 1.9 µM
DU-145 prostate
  GI50: 0.749 µM
  TGI: 1.58 µM
SNB-19 CNS
  GI50: 4.24 µM
  TGI: 9.12 µM
MCF7 breast
  GI50: 0.631 µM
  TGI: 1.5 µM
OVCAR-8 ovarian
  GI50: 5.69 µM
  TGI: 17.5 µM
NCI-H226 lung
  GI50: 5.02 µM
  TGI: 12.5 µM
HS 578T breast
  GI50: 0.88 µM
  TGI: 3.45 µM
UACC-62 melanoma
  GI50: 3.99 µM
  TGI: 8.28 µM
MDA-MB-231 breast
  GI50: 0.61 µM
  TGI: 1.18 µM
K-562 leukemia
  GI50: 1 µM
  TGI: 34.5 µM
SK-MEL-28 melanoma
  GI50: 0.752 µM
  TGI: 1.85 µM
786-0 renal
  GI50: 0.497 µM
  TGI: 1.03 µM
SF-268 CNS
  GI50: 3.56 µM
  TGI: 10.9 µM
U251 CNS
  GI50: 1.24 µM
  TGI: 4.82 µM
OVCAR-3 ovarian
  GI50: 0.636 µM
  TGI: 1.36 µM
SK-MEL-5 melanoma
  GI50: 1.41 µM
  TGI: 5.28 µM
HOP-92 NSCLC
  GI50: 3.14 µM
  TGI: 8.29 µM
NCI/ADR-RES ovarian
  GI50: 3.66 µM
  TGI: 10 µM
HCC-2998 colon
  GI50: 1.44 µM
  TGI: 5.09 µM
SW-620 colon
  GI50: 0.637 µM
  TGI: 1.26 µM
SNB-75 CNS
  GI50: 0.979 µM
  TGI: 5.14 µM
